Reference: PubChem BioAssay (NCI)
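Tested at 5 concentrations; 48 h exposure; 96-well plates; endpoints linearly interpolated, else capped at highest concentration. At the GI50, growth is halved. Definition used: TGI = concentration required for complete inhibition of growth.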 Where a SMILES comes first, the peptide text is derived from it. [ ]: non-standard residue; d: D form. The star is where a group is joined. ξ: configuration not given here. ξPhe(4-NO2) = NC(Cc1ccc([N+](=O)[O-])cc1)C(=O)O; Boc = CC(C)(C)OC(=O)*

Experiments:
Test in all cases: growth of human tumour cells (NCI), 48 h
[1] = tested on: BT-549 breast
[2] = tested on: COLO 205 colon
[3] = tested on: DU-145 prostate
[4] = tested on: LOX IMVI melanoma
[5] = tested on: MCF7 breast
[6] = tested on: NCI-H226 lung
[7] = tested on: NCI-H522 lung
[8] = tested on: OVCAR-8 ovarian
[9] = tested on: RPMI-8226 leukemia
[10] = tested on: SK-MEL-5 melanoma
[11] = tested on: UACC-257 melanoma
[12] = tested on: MOLT-4 leukemia
[13] = tested on: OVCAR-4 ovarian

| SMILES | TGI [1] [µM] | GI50 [2] [µM] | TGI [2] [µM] | TGI [3] [µM] | GI50 [4] [µM] | TGI [4] [µM] | TGI [5] [µM] | TGI [6] [µM] | TGI [7] [µM] | TGI [8] [µM] | GI50 [9] [µM] | TGI [9] [µM] | TGI [10] [µM] | TGI [11] [µM] | TGI [12] [µM] | TGI [13] [µM] |
| --- | --- | --- | --- | --- | --- | --- | --- | --- | --- | --- | --- | --- | --- | --- | --- | --- |
| CCOC(=O)/C=C(/C(=O)OCC)n1ccc(=O)n(CC(=O)OCC)c1=O | 4.61 | 0.361 | 1.63 | 17.1 | 0.422 | 1.81 | 1.84 | 5.31 | 0.624 | 6.41 | 1.77 | 4.35 | 6.21 | 7.72 | – | – |
| CCCCN1CCC(O)(c2cc(C(=O)O)[nH]c2-c2cc(C)no2)C1=O (centres undefined) | > 100 | – | > 100 | > 100 | – | – | > 100 | – | > 100 | > 100 | – | > 100 | > 100 | > 100 | > 100 | > 100 |
| CCNC(=O)CNC(=O)C(Cc1ccc([N+](=O)[O-])cc1)NC(=O)OC(C)(C)C (centres undefined) (Boc-[ξPhe(4-NO2)]-Gly-NHEt) | > 100 | – | > 100 | > 100 | – | > 100 | > 100 | > 100 | > 100 | > 100 | – | > 100 | > 100 | – | > 100 | > 100 |
| COC(=O)/C=C/c1cnc2c(c1)oc(=O)n2C | > 100 | – | > 100 | > 100 | – | > 100 | > 100 | > 100 | – | > 100 | – | > 100 | > 100 | > 100 | > 100 | > 100 |
| CCCCSC1=N/C(=C\c2ccc(N(C)C)cc2)C(Cl)=N1 | > 100 | – | > 100 | > 100 | – | > 100 | > 100 | > 100 | > 100 | > 100 | – | > 100 | – | > 100 | > 100 | > 100 |
| Cc1nn(C(=O)c2ccncc2)c2c1C(c1ccc([N+](=O)[O-])cc1)SC(N)=N2 (centres undefined) | > 100 | – | > 100 | > 100 | – | > 100 | > 100 | > 100 | – | > 100 | – | > 100 | > 100 | > 100 | > 100 | > 100 |
| O=P(O)(O)CC1OC(CO)C(O)C1O (centres undefined) | > 100 | – | > 100 | > 100 | – | > 100 | > 100 | > 100 | > 100 | > 100 | – | – | > 100 | > 100 | > 100 | > 100 |
| NS(=O)(=O)c1nnc(NC(=O)/C=C/C(=O)O)s1 | > 100 | – | > 100 | > 100 | – | > 100 | > 100 | – | > 100 | > 100 | – | > 100 | > 100 | > 100 | > 100 | > 100 |
| COc1ccc2[nH]c3c(C)c4ncccc4c(C)c3c2c1 | > 10 | – | > 10 | > 10 | – | – | 4.81 | > 10 | > 10 | > 10 | – | 7.56 | > 10 | > 10 | > 10 | > 10 |
